Source: ChEMBL document CHEMBL5512665, “A CARM1 Inhibitor Potently Suppresses Breast Cancer Both In Vitro and In Vivo” (J Med Chem, 2024)
pEC50: −log10 of the molar value. Activity calls are given as the source filed them. The rule behind the calls is not given here.

Columns and labels:
4T1 [1] = experiment: Potentiation of etoposide induced antitumor activity against mouse 4T1 cells implanted in BALB/C mouse assessed as increase in infiltration of CD8 positive T cells at 25 mg/kg,ip administrated daily for 12 days in presence of 8 mg/kg etoposide administration by immunohistochemical staining based analysis; format: functional, organism-based; conditions: time 12.0 day
[2] = Toxicity in BALB/C mouse xenografted with human MCF7 cells assessed as change in kidney morphology at 50 mg/kg,ip administrated every other day for 29 days; format: organism-based; conditions: in vivo, 696 h, time 29 day
4T1 [3] = experiment: Potentiation of etoposide induced antitumor activity against mouse 4T1 cells implanted in BALB/C mouse assessed as reduction in tumor weight at 25 mg/kg,ip administrated daily for 12 days in presence of 8 mg/kg etoposide administration; format: functional, organism-based; conditions: time 12.0 day
[4] = Toxicity in BALB/C mouse xenografted with human MDA-MB-231 cells assessed as change in lung morphology at 25 mg/kg,ip administrated daily for 11 days; format: organism-based; conditions: in vivo, 264 h, time 11 day
MCF7 [5] = experiment: Synergistic antiproliferative activity against human MCF7 cells assessed as downregulation of TFF1 gene expression at 2.5 uM incubated for 6 hrs in presence of tamoxifen by RT-qPCR analysis; format: functional, cell-based
MCF7 [6] = experiment: Potentiation of etoposide induced antiproliferative activity against human MCF7 cells assessed as upregulation of ISG15 gene expression at 2.5 uM in presence of etoposide by RT-qPCR analysis; format: functional, cell-based
4T1 [7] = experiment: Antitumor activity against mouse 4T1 cells implanted in BALB/C mouse assessed as upregulation of DDX58 gene expression at 25 mg/kg,ip administrated daily for 14 days by RT-qPCR analysis; format: functional, organism-based; conditions: time 14.0 day
4T1 [8] = experiment: Antitumor activity against mouse 4T1 cells implanted in BALB/C mouse assessed as upregulation of IFNalpha gene expression at 25 mg/kg,ip administrated daily for 14 days by RT-qPCR analysis; format: functional, organism-based; conditions: time 14.0 day
4T1 [9] = experiment: Potentiation of etoposide induced antiproliferative activity against mouse 4T1 cells assessed as inhibition of colony formation at 2.5 uM incubated for 10 days in presence of etoposide by crystal violet staining based analysis; format: functional, cell-based; conditions: time 10.0 day
[10] = Toxicity in BALB/C mouse xenografted with human MCF7 cells assessed as change in body weight at 50 mg/kg,ip administrated every other day for 29 days; format: organism-based; conditions: in vivo, 696 h, time 29 day
[11] = Toxicity in BALB/C mouse xenografted with human MDA-MB-231 cells assessed as change in liver morphology at 50 mg/kg,ip administrated daily for 11 days; format: organism-based; conditions: in vivo, 264 h, time 11 day
4T1 [12] = experiment: Antitumor activity against mouse 4T1 cells implanted in BALB/C mouse assessed as downregulation of PGR gene expression at 25 mg/kg,ip administrated daily for 14 days by RT-qPCR analysis; format: functional, organism-based; conditions: time 14.0 day
HCC1806 = experiment: Antiproliferative activity against human HCC1806 cells assessed as reduction in cell growth incubated for 7 days by celltiter 96 aqueous one solution cell proliferation assay; conditions: HCC1806, 168 h
4T1 [13] = experiment: Antitumor activity against mouse 4T1 cells implanted in BALB/C mouse assessed as upregulation of CD8A expression at 50 mg/kg,ip administrated daily for 14 days by immunohistochemical staining based analysis; format: functional, organism-based; conditions: time 14.0 day
HCC1937 = experiment: Antiproliferative activity against human HCC1937 cells assessed as reduction in cell growth incubated for 7 days by celltiter 96 aqueous one solution cell proliferation assay; conditions: HCC1937, 168 h
MCF7 [14] = experiment: Antitumor activity against human MCF7 cells xenografted in BALB/C mouse assessed as downregulation of PGR gene expression at 25 mg/kg,ip administrated every other day for 29 days by RT-qPCR analysis; format: functional, organism-based; conditions: time 29.0 day
MCF7 [15] = experiment: Synergistic antiproliferative activity against human MCF7 cells assessed as downregulation of C-Myc gene expression at 2.5 uM incubated for 6 hrs in presence of fulvestrant by RT-qPCR analysis; format: functional, cell-based
MDA-MB-231 [16] = experiment: Antiproliferative activity against human MDA-MB-231 cells assessed as reduction in cell growth incubated for 7 days by celltiter 96 aqueous one solution cell proliferation assay; conditions: MDA-MB-231, 168 h
MCF7 [17] = experiment: Synergistic antiproliferative activity against human MCF7 cells assessed as inhibition of colony formation at 2.5 uM incubated for 10 days in presence of tamoxifen by crystal violet staining based analysis; format: functional, cell-based; conditions: time 10.0 day
4T1 [18] = experiment: Potentiation of etoposide induced antiproliferative activity against mouse 4T1 cells assessed as upregulation of IFNalpha gene expression at 2.5 uM in presence of etoposide by RT-qPCR analysis; format: functional, cell-based
[19] = Toxicity in BALB/C mouse implanted with mouse 4T1 cells assessed as change in spleen morphology at 25 mg/kg,ip administrated daily for 14 days; format: organism-based; conditions: in vivo, 336 h, time 14 day
[20] = Toxicity in BALB/C mouse implanted with mouse 4T1 cells assessed as change in spleen morphology at 50 mg/kg,ip administrated daily for 14 days; format: organism-based; conditions: in vivo, 336 h, time 14 day
4T1 [21] = experiment: Antitumor activity against mouse 4T1 cells implanted in BALB/C mouse assessed as upregulation of IFIT1 gene expression at 50 mg/kg,ip administrated daily for 14 days by RT-qPCR analysis; format: functional, organism-based; conditions: time 14.0 day
4T1 [22] = experiment: Antitumor activity against mouse 4T1 cells implanted in BALB/C mouse assessed as upregulation of IFIT1 gene expression at 25 mg/kg,ip administrated daily for 14 days by RT-qPCR analysis; format: functional, organism-based; conditions: time 14.0 day
MDA-MB-231 [23] = experiment: Antitumor activity against human MDA-MB-231 cells xenografted in BALB/C mouse assessed as inhibition of tumor growth at 50 mg/kg,ip administrated daily for 11 days; format: functional, organism-based; conditions: time 11.0 day
4T1 [24] = experiment: Antitumor activity against mouse 4T1 cells implanted in BALB/C mouse assessed as downregulation of GREB1 gene expression at 50 mg/kg,ip administrated daily for 14 days by RT-qPCR analysis; format: functional, organism-based; conditions: time 14.0 day
[25] = Toxicity in BALB/C mouse xenografted with human MDA-MB-231 cells assessed as change in lung morphology at 50 mg/kg,ip administrated daily for 11 days; format: organism-based; conditions: in vivo, 264 h, time 11 day
[26] = Toxicity in BALB/C mouse xenografted with human MCF7 cells assessed as change in lung morphology at 50 mg/kg,ip administrated every other day for 29 days; format: organism-based; conditions: in vivo, 696 h, time 29 day
4T1 [27] = experiment: Potentiation of etoposide induced antiproliferative activity against mouse 4T1 cells assessed as inhibition of cell growth at 2.5 uM incubated for 7 days in presence of etoposide by celltiter 96 aqueous one solution cell proliferation assay; format: functional, cell-based; conditions: time 7.0 day
MCF7 [28] = experiment: Synergistic antitumor activity against human MCF7 cells xenografted in BALB/C mouse assessed as downregulation of FOXC1 gene expression at 25 mg/kg,ip administrated every other day for 15 days in presence of 5 mg/kg tamoxifen oral administration by RT-qPCR analysis; format: functional, organism-based; conditions: time 15.0 day
4T1 [29] = experiment: Antitumor activity against mouse 4T1 cells implanted in BALB/C mouse assessed as downregulation of NRIP1 gene expression at 50 mg/kg,ip administrated daily for 14 days by RT-qPCR analysis; format: functional, organism-based; conditions: time 14.0 day
MCF7 [30] = experiment: Antiproliferative activity against tamoxifen-resistant human MCF7 cells assessed as reduction in cell growth at 5 uM incubated for 7 days by celltiter 96 aqueous one solution cell proliferation assay; format: functional, cell-based; conditions: time 7.0 day
MCF7 [31] = experiment: Potentiation of etoposide induced antiproliferative activity against human MCF7 cells assessed as inhibition of cell growth at 2.5 uM incubated for 7 days in presence of etoposide by celltiter 96 aqueous one solution cell proliferation assay; format: functional, cell-based; conditions: time 7.0 day

Cc1ccc(-c2nc(N3CCN(CCN(C)C)CC3)ncc2-c2ccoc2)cc1.Cl.Cl
Activity (4T1 [1]): Active | Activity [2]: Non-Toxic | Activity (4T1 [3]): Active | Activity [4]: Non-Toxic | Activity (MCF7 [5]): Active | Activity (MCF7 [6]): Active | Activity (4T1 [7]): Active | Activity (4T1 [8]): Active | Activity (4T1 [9]): Active | Activity [10]: Non-Toxic | Activity [11]: Non-Toxic | Activity (4T1 [12]): Active | pEC50 (HCC1806): 5.55 | Activity (4T1 [13]): Active | pEC50 (HCC1937): 5.71 | Activity (MCF7 [14]): Active | Activity (MCF7 [15]): Active | pEC50 (MDA-MB-231 [16]): 5.43 | Activity (MCF7 [17]): Active | Activity (4T1 [18]): Active | Activity [19]: Non-Toxic | Activity [20]: Non-Toxic | Activity (4T1 [21]): Active | Activity (4T1 [22]): Active | Activity (MDA-MB-231 [23]): Active | Activity (4T1 [24]): Active | Activity [25]: Non-Toxic | Activity [26]: Non-Toxic | Activity (4T1 [27]): Active | Activity (MCF7 [28]): Active | Activity (4T1 [29]): Active | Activity (MCF7 [30]): Active | Activity (MCF7 [31]): Active
